Test results taken from PMC4703549 (Cancer research, 2015).
“Also recorded” adds a separate entry of the source. Where two headings read alike, the source gives them in different places.

Assays:
[1] = system: TNK2 D163E cells; assay type: cell-based, murine; settings: for IC50: Ba/F3 TNK2 D163E, no IL3, 72 hours, MTS
[2] = system: TNK2 R806Q cells; assay type: cell-based, murine; settings: for IC50: Ba/F3 TNK2 R806Q, no IL3, 72 hours, MTS
[3] = system: TNK2 D163E T205I and T205M Ba/F3 lines; assay type: cell-based, murine; settings: T205I and T205M added to D163E, IL-3 independent Ba/F3 lines
[4] = system: TNK2 S808* and TNK2 Q831fs; experiment: Phosphorylation of TNK2 truncation mutants in transfected 293T17 cells; assay type: cell-based, human; settings: 1 μM dasatinib, 2.5 μM XMD8-87 or 2.5 μM XMD16-5, 3.5 hours
[5] = system: parental Ba/F3 cells; experiment: Inhibitor study, MTS viability of control Ba/F3 cells grown in IL3; assay type: cell-based, murine; settings: IL3 containing medium; highest tested concentration 1,000 nM

Structure (SMILES) | IC50 [1] [nM] | IC50 [2] [nM] | sensitivity of D163E cell lines carrying gatekeeper mutations [3] | inhibition of phosphorylation of TNK2 truncation mutants [4] | sensitivity of post-transformation line ([1]; Ba/F3 TNK2 D163E post-interleukin-3-independent transformation) | IC50 ([1]; listed as Dasatinib) [nM] | sensitivity of control or pre-transformation cell lines grown in IL3 [5] | sensitivity of post-transformation line ([2]; Ba/F3 TNK2 R806Q post-interleukin-3-independent transformation) | IC50 ([2]; listed as Dasatinib) [nM]
c1ccc(-c2oc3ncnc(NC[C@@H]4CCCO4)c3c2-c2ccccc2)cc1 [AIM-100] | 91 | 320 | resistance | – | – | – | – | – | –
COc1cc(N2CCN(C)CC2)ccc1Nc1ncc2c(n1)N(C)c1ccccc1C(=O)N2 [XMD8-87] | 38 | 113 | resistance | vast majority of phosphorylation was blocked; also recorded: inhibited; also recorded: potently inhibit | – | – | – | – | –
CN1c2ccccc2C(=O)Nc2cnc(Nc3ccc(N4CCC(O)CC4)cc3)nc21 [XMD16-5] | 16 | 77 | resistance | vast majority of phosphorylation was blocked; also recorded: inhibited; also recorded: potently inhibit | – | – | – | – | –
Cc1nc(Nc2ncc(C(=O)Nc3c(C)cccc3Cl)s2)cc(N2CCN(CCO)CC2)n1 [dasatinib, N-(2-chloro-6-methyl-phenyl)-2-(6-(4-(2-hydroxyethyl)-piperazin-1-yl)-2-methylpyrimidin-4-ylamino)thiazole-5-carboxamide] | < 10 | < 10 | resistance | vast majority of phosphorylation was blocked; also recorded: inhibited | sensitive to dasatinib at low nanomolar concentrations | ~0.1 | did not show sensitivity; also recorded: completely insensitive | sensitive to dasatinib at low nanomolar concentrations | 1.3
